ChEMBL document CHEMBL4495564, “Identification of inhibitors of SARS-Cov2 M-Pro enzymatic activity using a small molecule repurposing screen” (2020)
Where a name gives a salt, the structure may show the parent alone.

Assays:
[1] = target: Replicase polyprotein 1ab (Middle East respiratory syndrome-related coronavirus (isolate UnitedKingdom/H123990006/2012) (Betacoronavirus England 1) (Humancoronavirus EMC)) (UniProt K9N7C7); settings: at 10 µM
[2] = target: Replicase polyprotein 1ab (Middle East respiratory syndrome-related coronavirus (isolate UnitedKingdom/H123990006/2012) (Betacoronavirus England 1) (Humancoronavirus EMC), UniProt K9N7C7); assay: biochemical; assay type: functional
Sequence of Replicase polyprotein 1ab (K9N7C7 3248-3553 limits assumed): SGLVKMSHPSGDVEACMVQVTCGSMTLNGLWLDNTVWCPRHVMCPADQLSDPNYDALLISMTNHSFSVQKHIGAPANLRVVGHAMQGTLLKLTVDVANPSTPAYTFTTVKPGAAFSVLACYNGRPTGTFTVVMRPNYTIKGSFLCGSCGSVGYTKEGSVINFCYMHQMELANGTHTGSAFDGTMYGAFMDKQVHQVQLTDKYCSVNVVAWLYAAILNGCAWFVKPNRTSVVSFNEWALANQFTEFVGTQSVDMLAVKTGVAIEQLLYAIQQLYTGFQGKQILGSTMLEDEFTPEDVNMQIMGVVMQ

[3] = target: Chymotrypsin (Homo sapiens) (UniProt Q99895+P17538+P40313+Q6GPI1); assay: Chymotrypsin inhibition percentage at 10 µM by FRET kind of response from peptide substrate; assay type: functional
Sequence of Chymotrypsin (Homo sapiens) (Q6GPI1 whole entry, looked up, chain 1 of 4): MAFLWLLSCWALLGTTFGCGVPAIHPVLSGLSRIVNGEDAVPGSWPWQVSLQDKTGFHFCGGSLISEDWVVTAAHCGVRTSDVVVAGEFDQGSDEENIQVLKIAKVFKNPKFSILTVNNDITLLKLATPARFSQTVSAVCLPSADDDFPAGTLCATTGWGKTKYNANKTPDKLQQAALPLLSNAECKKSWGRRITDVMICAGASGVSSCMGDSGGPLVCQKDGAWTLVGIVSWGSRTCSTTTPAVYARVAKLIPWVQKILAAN
Sequence of Chymotrypsin (Homo sapiens) (P40313 whole entry, looked up, chain 2 of 4): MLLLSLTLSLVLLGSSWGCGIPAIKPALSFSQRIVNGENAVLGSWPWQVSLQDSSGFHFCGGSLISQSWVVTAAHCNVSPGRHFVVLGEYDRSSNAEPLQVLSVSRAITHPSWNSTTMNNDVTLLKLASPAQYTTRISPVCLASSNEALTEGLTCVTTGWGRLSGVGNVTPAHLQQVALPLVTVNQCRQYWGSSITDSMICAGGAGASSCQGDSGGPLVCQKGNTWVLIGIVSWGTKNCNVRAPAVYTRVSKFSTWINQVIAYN
Sequence of Chymotrypsin (Homo sapiens) (P17538 whole entry, looked up, chain 3 of 4): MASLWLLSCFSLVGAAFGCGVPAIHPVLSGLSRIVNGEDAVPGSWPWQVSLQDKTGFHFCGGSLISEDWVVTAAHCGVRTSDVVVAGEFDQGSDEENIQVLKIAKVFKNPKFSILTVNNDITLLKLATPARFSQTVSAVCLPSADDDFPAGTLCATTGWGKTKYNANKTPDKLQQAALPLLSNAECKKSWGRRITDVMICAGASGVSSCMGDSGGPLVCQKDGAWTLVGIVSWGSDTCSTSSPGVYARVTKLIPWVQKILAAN
Sequence of Chymotrypsin (Homo sapiens) (Q99895 whole entry, looked up, chain 4 of 4): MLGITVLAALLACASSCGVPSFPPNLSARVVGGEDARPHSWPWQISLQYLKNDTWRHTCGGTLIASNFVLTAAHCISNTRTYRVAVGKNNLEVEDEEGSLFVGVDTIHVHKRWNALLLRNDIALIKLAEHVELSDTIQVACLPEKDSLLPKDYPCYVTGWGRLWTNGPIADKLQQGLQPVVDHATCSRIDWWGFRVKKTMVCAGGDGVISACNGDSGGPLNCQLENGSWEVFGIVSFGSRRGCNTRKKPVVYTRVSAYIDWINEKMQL

Molecule	inhibition [1]	IC50 [2]	inhibition [3]	IC50 ([2]; tested as the Ag salt or complex)	inhibition ([1]; tested as the Zn salt or complex)
COc1ccc2[nH]c([S+]([O-])Cc3ncc(C)c(OC)c3C)nc2n1 (configuration not stated) [TENATOPRAZOLE]	0%	> 10 µM	–	–	–
O=C(/C=C/c1ccc(O)c(O)c1)O[C@H](Cc1ccc(O)c(O)c1)C(=O)O [ROSMARINIC ACID]	19%	> 10 µM	–	–	–
O=C(O)c1ccc(SSc2ccc(C(=O)O)cn2)nc1	8%	> 10 µM	–	–	–
N#CSc1cc(SC#N)c(N)nc1N	–	2.3 µM	4.59%	–	–
c1ccc2sc(SSc3nc4ccccc4s3)nc2c1	–	–	5.04%	–	–
O=c1cc(-c2ccc(O)cc2)oc2cc(O)cc(O)c12 [APIGENIN]	17%	> 10 µM	–	–	–
O=C1C(Cl)=C(N2CCOCC2)C(=O)N1c1ccc(Cl)c(Cl)c1	0%	> 10 µM	7.24%	–	–
CC(Cc1ccc(O)c(O)c1)C(C)Cc1ccc(O)c(O)c1 (configuration not stated) [NORDIHYDROGUAIARETIC ACID]	0%	> 10 µM	–	–	–
COc1cccc(C(=O)CCN[C@@H](C)[C@H](O)c2ccccc2)c1	19%	> 10 µM	–	–	–
O=c1c2ccccc2[se]n1-c1ccccc1 [EBSELEN]	14%	> 10 µM	–	–	–
CNC(=O)ON(C(C)=O)C(=O)NC [CARACEMIDE]	8%	> 10 µM	–	–	–
CCCCn1c(NC(=O)c2cccs2)c(C#N)c2nc3ccccc3nc21	–	–	-3.7%	–	–
COc1cc(C(=S)N2CCOCC2)ccc1O [VANITIOLIDE]	0%	> 10 µM	–	–	–
Oc1c(I)cc(I)c(O)c1I	0%	> 10 µM	–	–	–
O=C(c1cc(O)c(O)c(O)c1)c1ccc(O)c(O)c1O [EXIFONE]	0%	> 10 µM	–	–	–
Nc1ccc(O)c2ncccc12	–	–	4.98%	–	–
CC(C)N(CCC(=O)c1ccc2ccccc2c1)Cc1ccccc1	–	8.1 µM	–	–	–
O=c1c(O)c(-c2cc(O)c(O)c(O)c2)oc2cc(O)cc(O)c12 [MYRICETIN]	5%	> 10 µM	3.78%	–	–
Oc1cc2c(cc1O)C(c1ccccc1)CNCC2 (configuration not stated)	5%	> 10 µM	8.97%	–	–
MERBROMIN	0%	–	10.5%	–	–
Cc1ccc(C)c(-n2sc3cc(F)ccc3c2=O)c1	–	–	-0.52%	–	–
C=CC(=O)c1ccc2ccccc2c1	26%	> 10 µM	–	–	–
Nc1cc2c3ccccc3ccc2c2ccccc12	3%	> 10 µM	-3.88%	–	–

Molecule	inhibition [1]	IC50 [2]	inhibition [3]	IC50 ([2]; tested as the Ag salt or complex)	inhibition ([1]; tested as the Zn salt or complex)
COC(=O)CC[C@H](NC(=O)[C@H](CC(=O)OC)NC(=O)OCc1ccccc1)C(=O)N[C@H](C(=O)N[C@@H](CC(=O)OC)C(=O)CF)C(C)C	–	–	11.2%	–	–
ACRIFLAVINE HYDROCHLORIDE	–	–	22%	–	–
O=[N+]([O-])c1cnc(Sc2nnc(O)n2-c2ccc3c(c2)OCCO3)s1	–	3.8 µM	–	–	–
C[n+]1cc2c3c(ccc2c2ccc4cc5c(cc4c21)OCO5)OCO3 [SANGUINARIUM CHLORIDE]	32%	> 10 µM	–	–	–
O=C(O)CCCCCCCCCCCCCCc1ccc(I)cc1 [IOCANLIDIC ACID]	0%	> 10 µM	–	–	–
CN(C)C(=S)SC(=S)N(C)C [BIS(DIMETHYLAMINETHIOCARBONYL)MONOSULFIDE]	0%	> 10 µM	–	–	–
O=C(CCl)c1ccccc1	–	–	7.75%	–	–
Cc1cc(C)cc(N2C(=O)CC(Sc3nc[nH]n3)C2=O)c1 (configuration not stated)	–	–	2.86%	–	–
Nc1ccc(S(=O)(=O)Nc2ncccn2)cc1 [SULFADIAZINE, SILVER]	–	–	–	> 10 µM	–
CC[C@H](CO)Nc1nc(NCc2ccc(-c3ccccn3)cc2)c2ncn(C(C)C)c2n1	4%	> 10 µM	–	–	–
COCCCOc1ccnc(C[S+]([O-])c2nc3ccccc3[nH]2)c1C (configuration not stated) [RABEPRAZOLE SODIUM]	46%	> 10 µM	–	–	–
CCOC(=O)Cc1ccc(-c2ccccc2)cc1	18%	> 10 µM	-0.88%	–	–
hemin	7%	–	6.35%	–	–
CC(C)(C)c1ccc(S(=O)(=O)/C=C/C#N)cc1 [BAY-11-7085]	0%	> 10 µM	–	–	–
Oc1cc2c(cc1O)[C@@H]1c3ccc(O)c(O)c3OC[C@]1(O)C2 [HEMATOXYLIN]	5%	> 10 µM	–	–	–
CCN1CCN(C(c2ccc(C(F)(F)F)cc2)c2ccc3cccnc3c2O)CC1 (configuration not stated)	–	–	3.72%	–	–
[O-][n+]1ccccc1S	–	–	8.11%	–	42%
THIMEROSAL [listing 1 of 2 here]	–	> 10 µM	–	–	–
C[C@H]1COc2c(N3CCN(C)CC3)c(F)cc3c(=O)c(C(=O)O)cn1c23 [LEVOFLOXACIN]	–	7.6 µM	1.29%	–	–
CN(C)CCNc1nc2cc(O)ccc2c2c1C(=O)c1ccccc1-2	0%	> 10 µM	–	–	–
O=C1c2c(O)cc(O)cc2O[C@H](c2cc(O)c(O)c(O)c2)[C@H]1O [AMPELOPSIN]	18%	> 10 µM	–	–	–
CCC(C)SSc1ncc[nH]1 (configuration not stated) [PX-12]	–	7.6 µM	–	–	–
[O-][S+](c1ccccc1)c1ccc2nnnn2n1 (configuration not stated)	–	10.1 µM	–	–	–

Molecule	inhibition [1]	IC50 [2]	inhibition [3]	IC50 ([2]; tested as the Ag salt or complex)	inhibition ([1]; tested as the Zn salt or complex)
THIMEROSAL [listing 2 of 2 here]	46%	–	–	–	–
CN1CCc2cccc3c2[C@H]1Cc1ccc(O)c(O)c1-3 [APOMORPHINE HYDROCHLORIDE]	6%	> 10 µM	–	–	–
Oc1cc(O)cc(/C=C/c2ccc(O)c(O)c2)c1 [PICEATANNOL]	24%	> 10 µM	–	–	–
c1ccc2sc(SNC3CCCCC3)nc2c1	0%	> 10 µM	–	–	–
CN1CC[C@@]2(C)c3cc(O)ccc3N(C)[C@@H]12	41%	> 10 µM	–	–	–
Cn1sc(=O)n(Cc2ccccc2)c1=O	–	–	4.03%	–	–
O=C(CC1Sc2ncnn2C1=O)Nc1ccc(Br)cc1 (configuration not stated)	–	–	8.42%	–	–
Auranofin	27%	–	8.63%	–	–
O=[N+]([O-])c1ccc(Sc2cccc[n+]2[O-])c2nonc12	–	–	4.87%	–	–
Nc1nnc(Sc2ncc([N+](=O)[O-])s2)s1	45%	> 10 µM	–	–	–
Sc1nc2ccccc2s1 [2-MERCAPTOBENZOTHIAZOLE]	0%	> 10 µM	–	–	–
O=C1C2CC=CCC2C(=O)N1SC(Cl)(Cl)Cl (configuration not stated) [CAPTAN]	5%	> 10 µM	–	–	–
Oc1cc2c(cc1O)[C@H]1c3ccccc3CN[C@@H]1CC2 [DIHYDREXIDINE HYDROCHLORIDE]	19%	> 10 µM	–	–	–
Oc1ccc2ccccc2c1SSc1c(O)ccc2ccccc12	6%	> 10 µM	–	–	–
O=c1cc(-c2ccccc2)oc2cc(O)c(O)c(O)c12 [BAICALEIN]	47%	> 10 µM	–	–	–
PHENYLMERCURIC ACETATE	4%	–	8.59%	–	–
CN(C)C(=S)SSC(=S)N(C)C [THIRAM]	48%	> 10 µM	–	–	–
O=[N+]([O-])C(Br)(CO)CO [BRONOPOL]	14%	> 10 µM	–	–	–
Oc1cc2c(cc1C(c1ccc(C(F)(F)F)cc1)N1CCOCC1)OCO2 (configuration not stated)	–	–	7.04%	–	–
CCCCCCNC(=O)n1cc(F)c(=O)[nH]c1=O	–	–	14%	–	–
O=C(c1ccc(/C=C/c2n[nH]c3ccccc23)cc1)N1CCNCC1 [KW-2449]	–	3.6 µM	3.6%	–	–
CCC(=O)OCN1C(=O)C=CC1=O	0%	> 10 µM	–	–	–
O=C1C=CC(=O)C2=C1C1c3ccccc3C2c2ccccc21	45%	> 10 µM	–	–	–
